Source: US6166085A, “Method of producing analgesia” (priority 1996, dated 2000)
Entries after “also recorded” stand apart in the source; their conditions may differ.

What was measured:
mechanical allodynia = assay: Mechanical allodynia in rat model of peripheral neuropathy (L5/L6 spinal nerve ligation), intrathecal, Example 2; type: in vivo, Sprague-Dawley rats; details: 0.6 μmol intrathecal, pH 6.58
Procedure: Experiments carried out in support of the present invention were performed in a rat model of peripheral neuropathy detailed in Example 2. Briefly, in the model used, rats are subjected to a surgical procedure, described by Kim and Chung (1992), designed to reproducibly injure peripheral nerves (spinal nerves L5 and L6). These rats develop a hyperesthetic state, which can be measured using one or more paradigms known in the art. Here, allodynia was measured by stimulation of neuropathic rat hindlimb using wire hairs having graded degrees of stiffness.
[…]. Test solutions at pH 6.58 were administered intrathecally as described above. Mechanical allodynia was measured by pressing nylon filaments of varying diameters against the paw. Data are expressed in terms of 50% response threshold, which is the median buckling weight required to evoke paw withdrawal; the lower the stimulus level, the more severe the allodynia.
Male Sprague-Dawley rats (200-350 gm) were prepared with chronic lumbar intrathecal catheters inserted under halothane anesthesia (Yaksh and Rudy). Animals were placed in a prone position and the left paraspinal muscles were separated from the spinous processes at the L4 -S2 levels, as described by Kim et al. The left L5 and L6 nerve roots were exposed and tightly ligated with 6-0 surgical silk suture. The rats were allowed to recover from anesthesia. Allodynia was typically observed to occur beginning 1-2 days post surgery and continuing for as long as 45 days. For testing, animals were placed in plastic cubicles with open wire mesh bottoms. Compound dissolved in preservative-free saline solution was administered in a volume of 10 μl through the intrathecal catheter, followed by 10 μl saline to flush the catheter line. Animals were tested for allodynia at various time points after drug treatment, as described below.
To assess the threshold of a non-noxious stimulus required to produce a left hind paw withdrawal (allodynia), Von Frey hairs (ranging from 0.4-15 grams), were systematically applied to the surgically treated hind paw. Failure to evoke a response was cause to test the next stiffer hair. Evocation of a brisk withdrawal response was cause to test the next lower stimulus intensity. This paradigm was repeated according to a statistical method (Dixon, 1976) to define the 50% response threshold.
Data in FIG. 6 are expressed in terms of 50% response threshold, which is the median buckling weight required to evoke paw withdrawal; the lower the stimulus level, the more severe the allodynia. Allodynia thresholds, measured 30 minutes after injection, were plotted against dosage. Each point represents a value for a single animal.

[1] = Plasma bupivacaine level and toxicity during IV infusion; type: in vivo, Harlan Sprague-Dawley rats
Procedure: (§1) Intravenous drugs were delivered to awake, unrestrained rats by slow infusion using a syringe pump (Harvard apparatus 22). Intrathecal drugs were delivered to awake, briefly restrained rats in a volume of 10 μl, followed by 10 μl of vehicle flush, using a calibrated tubing extension with a 30-gauge adapter fitting the implanted intrathecal catheter, attached to a geared Hamilton 100 μl glass syringe. IT drug delivery was monitored by observing the advancement of a small air bubble down the tubing.
For bupivacaine assays, samples were obtained by withdrawing and discarding approximately 0.3 cc of blood from arterial cannulae, and then withdrawing samples of approximately 0.5 cc volume. These samples were centrifuged and the plasma supernatant was frozen at -20° C. until analysis.
Bupivacaine was extracted from the thawed samples by solid-phase extraction chromatography )Chen Y et al., Therapeut Drug Monitor 14:317-321 (1992)). Sep-Pak C-18 (300 mg) cartridges were pre-conditioned with 4 ml of methanol and then 4 ml water. […]
Bupivacaine was quantitated by capillary GC with nitrogen-phosphorus detection )Bjork M et al., Journal of Chromatography 533:229-234 (1990)). […] Split injections (1.5:1) were performed with a Hewlett Packard 7673A automatic sampler, and the chromatograms were recorded and analyzed with H-P Chemstation (MSDOS) software. […]

allodynia [2] = details: cited from earlier work; for activity as metabolite with regard to allodynia suppression, earlier application: application Ser. No. 08/422,377
allodynia [3] = assay: Tactile allodynia (paw withdrawal threshold, % MPE) in L5/L6 spinal nerve ligated rats, Example 3; type: in vivo, Harlan Sprague-Dawley rats; details: for effect on allodynia, IV (in words) / Emax at 20 mg/kg: 20 mg/kg; for Emax at 20 mg/kg: Rattus norvegicus, 1 h, IV, 3-OH L in DMSO (p=0.006 vs DMSO, N=4), MEGX over 60 minutes (P=NS vs saline), read-out: maximum effect on PWT (% MPE), IV
Procedure: Male Harlan Sprague-Dawley rats were used (100-200 g). Rats were housed 2-3 to a cage with corn cob bedding and Purina rat chow and water ad libitum, in a standard facility with a 12 h/12 h day/night cycle. After surgical procedures involving chronic indwelling catheter insertion, animals were housed singly to prevent catheter damage.
Rats were allowed to recover 5-7 days before further testing or surgeries.
The catheters were 9 cm in intrathecal length and terminated near the lumbar enlargement. The rostral 3 cm of catheter was tunneled under the skin to externalize between the ears. Rats with neurologic deficits were discarded.
For intravascular access, external jugular catheters were fashioned from PE-50 tubing and inserted into an external jugular vein under halothane/oxygen anesthesia. Arterial catheters were also fashioned from PE-50 with a small bouton 1 cm from the intravascular end for suture securing; they were inserted into a carotid artery, taking care to spare the surrounding nerves. All catheters were flushed with heparinized saline (10 U/ml) and tunneled subcutaneously to emerge at the posterior base of the neck, and capped when not in use.
Monoethylglycinexylidide (MEGX) and 3-hydroxy monoethyl-glycinexylidide (3-OH MEGX) were dissolved in physiologic saline; 3-hydroxylidocaine (3-OH L) was dissolved in DMSO for intravenous administration.
as §1
Rats were placed in a plastic cage with an open wire mesh bottom and allowed to accommodate for approximately fifteen minutes. […] In brief, von Frey hairs were sequentially applied using an up-and-down paradigm to the left mid-plantar hindpaw with sufficient force to cause slight filament buckling. Positive responses were noted if the paw was sharply withdrawn. […] Otherwise, PWT were calculated by noting the stimulus level at which the first change in behavior occurred, collecting four additional responses to the continued up-and-down oscillation of stimulus presentation around the response threshold, and interpolating the 50% response threshold. For some comparisons, raw thresholds were converted to percent of maximum possible effect (% MPE), designating pre-treatment PWT (baselines) as 0% effect, and assigning a cutoff value of 100% effect to thresholds ≥15 g: therefore, % MPE values near 100 indicate normal mechanical thresholds (i.e., at or near 15 g), whereas values near 0 indicate allodynia. The following equation was used to compute % MPE:
% MPE=new threshold(g)-baseline threshold(g)×100/ 15 grams--baseline
Plasma drug levels and PWT were correlated using linear regression. Serially measured PWT and % MPE were compared using repeated measures ANOVA with post-hoc testing.

[4] = tested on: sciatic nerve compound action potential; assay: Rat sciatic nerve compound action potential in vivo, direct application; design: species or system Harlan Sprague Dawley rats; details: for potency relative to lidocaine: compound action potential blockade; for blockade of sciatic nerve compound action potential (in words): direct application, lidocaine 2.5 mg, metabolites 5 mg, 10 min
Procedure: Male Harlan Sprague Dawley rats (300-350 g) were anesthetized with pentobarbital/diazepam. The sciatic nerves were sequentially and bilaterally exposed by sharp/blunt dissection from the popliteal region proximally. Electrodes were placed at the sciatic notch (stimulating), and the interossei (recording); a grounding electrode was applied remote from the field. Baseline compound action potential (CAP) (A alpha/beta) wave heights (mV) in response to stimulation 1× per minute were recorded for ten minutes to obtain a stable reference. One drug/vehicle solution was applied per nerve, at mid-nerve (mid-thigh) level, in a volume of 250 μl, and compound action potential wave height then was recorded 1× per minute for ten minutes after application.

[5] = Observation of motor dysfunction and overt behavior / side effects; type: in vivo, Sprague-Dawley rats; details: IT; for motor dysfunction, IT (in words): Example 3, lidocaine and MEGX 500 μg, 3-OH L 58 μg (highest dose soluble in vehicle)
Text: Animals were also observed for the appearance of general motor dysfunction,as evidenced by inability to ambulate symmetrically and for any other overt signs of unusual activity.

Compound	potency relative to lidocaine [4]	blockade of sciatic nerve compound action potential (in words) [4]	activity as metabolite with regard to allodynia suppression, earlier application (allodynia [2])	motor dysfunction, IT (in words) [5]	effect on allodynia, IV (in words) (allodynia [3]; IV infusion)	Emax at 20 mg/kg (allodynia [3])	also measured
Cc1cccc(C)c1OCC(C)N (stereo not drawn) [mexiletine]							effect on mechanical allodynia (50% response threshold), 0.6 μmol (mechanical allodynia): did not block mechanical allodynia
CCCCN1CCCCC1C(=O)Nc1c(C)cccc1C (stereo not drawn) [bupivacaine]							toxicity (in words) [1]: evident toxicity as manifested by ataxia and lethargy; also recorded: Higher doses resulted in seizure; mean plasma level at seizure ([1]; N=4, unit not given): 7.4±0.7; effect of IV bupivacaine on allodynia, earlier literature (allodynia [2]; Biella G et al. 1992, centrally facilitated nociceptive processing): lack of effect of bupivacaine on centrally facilitated nociceptive processing; effect of intravenous bupivacaine on allodynia (allodynia [3]; IV infusion, 15 samples from 4 rats, P=0.11, linear regression): no effect on allodynia; also recorded: inactive against allodynia
CCNCC(=O)Nc1c(C)cccc1C [MEGX, Monoethylglycinexylidide]	approximately 1/3	showed some activity	not MEGX was an active metabolite with regard to allodynia suppression	transient motor dysfunction	no effect	28%	duration of motor dysfunction (hindquarter flaccidity / weakness) ([5]; 500 μg): 5 to 10 min; motor block / motor effects (summary) ([5]; 3-hydroxy MEGX at effective anti-allodynia dose, MEGX in excess): motor blockade; suppression of allodynia after IT administration (summary) (allodynia [3]; IT): not MEGX, suppressed allodynia after IT administration; effect on allodynia / PWT, IT 500 μg (in words) (allodynia [3]; IT, 500 μg, after recovery of motor function): no effect on PWT
CCN(CC)CC(=O)Nc1c(C)ccc(O)c1C [3-OH L, 3-hydroxylidocaine]	1/4	showed some activity	active metabolite with regard to allodynia suppression	no motor dysfunction was seen	both potent and effective at suppressing allodynia	76%	local anesthetic (sodium channel blocking) activity ([4]; FIG. 12 legend): weaker local anesthetic than lidocaine; MPE, IT 20 μg (allodynia [3]; IT, 20 (unit printed "l g")): 80.2±20%; MPE, IT 58 μg (allodynia [3]; IT, 58 (unit printed "l g")): 63±16%
